Converted amounts (≈) assume the structure as drawn. Like-named read-outs stand apart in the source and are kept apart here.
Columns and labels:
[1] = tested on: human adenocarcinoma cells of the colon (LOVO); assay: Cytotoxic effect on LOVO cells, colony formation in culture; format: cell-based; settings: dose required to reduce by 50% the number of colonies, 37° C., 12-14 days, read-out: ID50 LOVO
Method: (§1) (A) The cytotoxic effects of a variety of compounds of formula (II) on human adenocarcinoma cells of the colon (LOVO) and human mammary epithelial tumor cells (MCF7) grown in culture were studied. A range of doses of the drugs was added on day one to replicate cultures of several hundred cells each, which were then incubated at 37° C. for 12-14 days. The cultures were then fixed and stained and the numbers of colonies per dish counted. The results obtained are shown in Table 1, the individual compounds being identified by the groups R1, R2 and R3 present therein, the last mentioned compound being the compound of formula (I) having R1 =H and R2 =CH3 which is used as a control. The results are expressed in terms of the ID50 which is the dose required to reduce by 50% the number of colonies growing up in the drug-treated cultures compared with untreated controls.

[2] = tested on: human mammary epithelial tumor cells (MCF7); assay: Cytotoxic effect on MCF7 cells, colony formation in culture; format: cell-based; settings: dose required to reduce by 50% the number of colonies, 37° C., 12-14 days, read-out: ID50 MCF7
Method: as §1

Water solubility = format: physicochemical
Excerpt: By modification of the nature of the ester groups it is possible to alter the water solubility, lipophilicity and rate of conversion to the active cytotoxic molecules (I). […] Similarly, increased lipophilicity may be obtained in these prodrugs by the introduction of, for example, hydrocarbon groupings such as isobutyl or benzyl and this is reflected by the relatively high Rf values in a 50% v/v chloroform/ethanol/SiO2 thin layer chromatography system as recorded in the Examples given hereinafter. An increased lipophilicity favours better absorption and changes in tissue distribution such as greater penetration of the central nervous system. The more lipophilic products are also the most attractive candidates for the percutaneous treatment of psoriasis. Further, depending upon whether R3 is an electron-withdrawing group, for example benzyl, propargyl or carbethoxymethyl, or an electron-repelling group, for example isobutyl, hydroxyethyl or methoxyethyl, the rate of conversion of the compound (II) to the corresponding compound (I) can be speeded up or slowed down. Thus, by providing some control over the water solubility, lipophilicity and rate of generation of the active species, the prodrug compounds of the present invention provide the ability to modify the tissue distribution and pharmacodynamics of the dioxopiperazine drugs with consequential therapeutic benefit to the patient.

[3] = Incubation under physiological conditions: formation of (I) from the 14C-labelled dimethyl ester and hydrolysis of the diimide (HPLC); format: physicochemical; settings: pH 7.2, 37° C.
Method: (B) The rate of formation of the active antitumor agent (I) having R1 […] R2 =H from the corresponding ^14 C-labelled dimethyl ester (II) (R1 =R2 =H, R3 =CH3) following incubation under physiologically conditions, i.e. at 37° C. and pH and 7.2 in normal (0.15M) phosphate buffered saline [Practical Immunology, Hudson and hay (editors), Blackwell Scientific Publications, Second Edition, 1980, page 336] was studied. Sample of the incubation mixture were fractionated at different time intervals using HPLC with a reverse phase ODS column and an aqueous methanol gradient elution system.

Absorption by mouth = format: in vivo; settings: oral; in words
[4] = esters corresponding to the diimide (I) in which R1 =R2 =H, read-out: water solubilities

Structure (SMILES) | IC50 [1] [µM] | IC50 [2] [µM] | other results
CC(CN(CC(N)=O)CC(=O)OCc1ccc([N+](=O)[O-])cc1)N(CC(N)=O)CC(=O)OCc1ccc([N+](=O)[O-])cc1 (racemic) [R1=CH3, R2=H, R3=p-NO2 --CH2 C6 H5, dl-NN'-Di-p-nitrobenzyloxycarbonylmethyl-NN'-diaminocarbonylmethyl-1,2-diaminopropane] | 14 | 21 | 
NC(=O)CN(CCN(CC(N)=O)CC(=O)OCCO)CC(=O)OCCO [R1=H, R2=H, R3=CH2 CH2 OH, NN'-Di-(2-hydroxyethoxy)carbonylmethyl-NN'-diaminocarbonylmethyl-1,2-diaminoethane] |  |  | solubility (Water solubility; [4]): > 20 mg/mL
C[C@H]([C@H](C)N(CC(N)=O)CC(=O)OCC(=O)O)N(CC(N)=O)CC(=O)OCC(=O)O [R1=CH3, R2=CH3, R3=CH2 CO2 H, meso-NN'-Di-(carboxymethyloxycarbonylmethyl)-NN'-diaminocarbonylmethyl-2,3-diaminobutane] | 0.2 | 1.1 | 
O=C1CN(CCN2CC(=O)NC(=O)C2)CC(=O)N1 [diimide (I) R1=R2=H, 1,2-bis-(3,5-dioxopiperazin-1-yl)ethane, reference compound] |  |  | solubility (Water solubility; 20° C., pH 7.2, read-out: water solubility): ~0.1 mg/mL (≈ 0.393 mM); half-life ([3]; normal (0.15M) phosphate buffered saline, read-out: half life (hydrolysis to an inactive form) (converted)): ~12 h; absorption by mouth (Absorption by mouth): not being well absorbed by mouth
CC(C)COC(=O)CN(CCN(CC(N)=O)CC(=O)OCC(C)C)CC(N)=O [R1=H, R2=H, R3=CH2 CH(CH3)2, NN'-Di-isobutoxycarbonylmethyl-NN'-diaminocarbonylmethyl-1,2-diaminoethane] | 103 | 121 | 
CCCCOCCOC(=O)CN(CCN(CC(N)=O)CC(=O)OCCOCCCC)CC(N)=O [R1=H, R2=H, R3=CH2 CH2 O(CH2)3 CH3, NN'-Di-(2-n-butoxyethoxy)carbonylmethyl-NN'-diaminocarbonylmethyl-1,2-diaminoethane] | 47 | 36 | 
CC(CN1CC(=O)NC(=O)C1)N1CC(=O)NC(=O)C1 (stereo not drawn) [R1=CH3, R2=H, cyclic imide, reference compound] | 18 | 17 | 
CC(CN(CC(N)=O)CC(=O)OCc1ccccc1[N+](=O)[O-])N(CC(N)=O)CC(=O)OCc1ccccc1[N+](=O)[O-] (racemic) [R1=CH3, R2=H, R3=o-NO2 --CH2 C6 H5, dl-NN'-Di-o-nitrobenzyloxycarbonylmethyl)-NN'-diaminocarbonylmethyl-1,2-diaminopropane] | 11 | 16 | 
CC(CN(CC(N)=O)CC(=O)OCc1ccccc1)N(CC(N)=O)CC(=O)OCc1ccccc1 (racemic) [R1=CH3, R2=H, R3=CH2 C6 H5, dl-NN'-Dibenzyloxycarbonylmethyl-NN'-diaminocarbonylmethyl-1,2-diaminopropane] | 17 | 22 | 
NC(=O)CN(CCN(CC(N)=O)CC(=O)OCC(=O)O)CC(=O)OCC(=O)O [R1=H, R2=H, R3=CH2 CO2 H, NN'-Di-(carboxymethyloxycarbonylmethyl)-NN'-diaminocarbonylmethyl-1,2-diamonoethane] | 67 | 46 | 
COC(=O)CN(CCN(CC(N)=O)CC(=O)OC)CC(N)=O [R1=H, R2=H, R3=CH3, NN'-Dimethoxycarbonylmethyl-NN'-diaminocarbonylmethyl-1,2-diaminoethane] | 28 | 39 | solubility (Water solubility; [4]): > 20 mg/mL; formation of the active cytotoxic species (I) by cyclisation of the bis-ester ([3]; 0.15M phosphate buffered saline, the Figure, in words): leads to a sustained concentration of the active cytotoxic species

— US5278187A, “Pharmaceutical compositions” (British Technology Group Ltd., priority 1985, dated 1994)
